In ChEMBL document CHEMBL2321746, “Cloning, characterization, and sulfonamide and thiol inhibition studies of an α-carbonic anhydrase from Trypanosoma cruzi, the causative agent of Chagas disease” (J Med Chem, 2013):

Assays:
Type in all cases: functional
Trypanosoma cruzi [1] = test: Antitrypanosomal activity against Trypanosoma cruzi Y epimastigotes at 8 uM incubated for 48 hrs by resazurin dye reduction based ELISA method
Trypanosoma cruzi [2] = test: Antitrypanosomal activity against Trypanosoma cruzi Y epimastigotes at 16 uM incubated for 48 hrs by resazurin dye reduction based ELISA method
Trypanosoma cruzi [3] = test: Antitrypanosomal activity against Trypanosoma cruzi Y epimastigotes at 256 uM incubated for 48 hrs by resazurin dye reduction based ELISA method
Trypanosoma cruzi [4] = test: Antitrypanosomal activity against Trypanosoma cruzi Y epimastigotes at 64 uM incubated for 48 hrs by resazurin dye reduction based ELISA method
Trypanosoma cruzi [5] = test: Antitrypanosomal activity against Trypanosoma cruzi Y epimastigotes at 32 uM incubated for 48 hrs by resazurin dye reduction based ELISA method
Trypanosoma cruzi [6] = test: Antitrypanosomal activity against Trypanosoma cruzi Y epimastigotes at 128 uM incubated for 48 hrs by resazurin dye reduction based ELISA method
Trypanosoma cruzi [7] = test: Antitrypanosomal activity against Trypanosoma cruzi DM28 epimastigotes at 256 uM incubated for 48 hrs by resazurin dye reduction based ELISA method; details: DM28, 48 h
Trypanosoma cruzi [8] = test: Antitrypanosomal activity against Trypanosoma cruzi DM28 epimastigotes at 128 uM incubated for 48 hrs by resazurin dye reduction based ELISA method; details: DM28, 48 h

## O=C(Cn1ccnc1[N+](=O)[O-])NCc1ccccc1 [BENZNIDAZOLE]
Trypanosoma cruzi [1]
  inhibition at 8 µM: 51%
Trypanosoma cruzi [2]
  inhibition at 16 µM: 66%
Trypanosoma cruzi [3]
  inhibition at 256 µM: 91%
Trypanosoma cruzi [4]
  inhibition at 64 µM: 75%
Trypanosoma cruzi [5]
  inhibition at 32 µM: 60%
Trypanosoma cruzi [6]
  inhibition at 128 µM: 80%

## O=C(N/N=C1\C(=O)Nc2ccccc21)Nc1n[nH]c(=S)s1
Trypanosoma cruzi [3]
  inhibition at 256 µM: 30%
Trypanosoma cruzi [7]
  inhibition at 256 µM: 9%

## O=C(N/N=C\c1ccccc1)Nc1nnc(S)s1
Trypanosoma cruzi [3]
  inhibition at 256 µM: 87%
Trypanosoma cruzi [8]
  inhibition at 128 µM: 43%
Trypanosoma cruzi [4]
  inhibition at 64 µM: 64%
Trypanosoma cruzi [7]
  inhibition at 256 µM: 87%
Trypanosoma cruzi [6]
  inhibition at 128 µM: 84%

## C/C(CC(C)C)=N/NC(=O)Nc1nnc(S)s1
Trypanosoma cruzi [3]
  inhibition at 256 µM: 43%
Trypanosoma cruzi [7]
  inhibition at 256 µM: 20%

## C/C(=N/NC(=O)Nc1nnc(S)s1)c1ccc(Cl)cc1
Trypanosoma cruzi [3]
  inhibition at 256 µM: 32%
Trypanosoma cruzi [7]
  inhibition at 256 µM: 0%

## O=C(N/N=C\c1ccc(Cl)cc1)Nc1nnc(S)s1
Trypanosoma cruzi [3]
  inhibition at 256 µM: 67%
Trypanosoma cruzi [7]
  inhibition at 256 µM: 10%
Trypanosoma cruzi [6]
  inhibition at 128 µM: 51%

## O=C(N/N=C\c1cccc(Br)c1)Nc1nnc(S)s1
Trypanosoma cruzi [3]
  inhibition at 256 µM: 58%
Trypanosoma cruzi [7]
  inhibition at 256 µM: 34%

## O=C(N/N=C1\C(=O)Nc2ccc(Br)cc21)Nc1n[nH]c(=S)s1
Trypanosoma cruzi [3]
  inhibition at 256 µM: 20%
Trypanosoma cruzi [7]
  inhibition at 256 µM: 22%

## COc1cccc(/C=N\NC(=O)Nc2nnc(S)s2)c1
Trypanosoma cruzi [3]
  inhibition at 256 µM: 77%
Trypanosoma cruzi [7]
  inhibition at 256 µM: 43%
Trypanosoma cruzi [6]
  inhibition at 128 µM: 44%
